From patent US11666642B2, “PDE5 compositions and methods for immunotherapy” (Obsidian Therapeutics, Inc., priority 2017, dated 2023)

Key:
Format in all cases: cell-based, human
[1] = system: hPDE5 truncation mutants (R732L) fused to AcGFP in HCT 116 cells; assay: Western blot for AcGFP of hPDE5 truncation mutants with Vardenafil; conditions: 10 μM Vardenafil, 24 hours
Protocol: Protein expression analysis of the truncation mutants was performed in parallel via western blot. […] GAPDH levels were also analyzed to ensure even protein loading.

[2] = system: hPDE5 mutants fused to GFP in HCT116 cells; assay: Tadalafil dose response of combination mutants, MFI by FACS
Protocol: The response of hPDE5 combination mutants to increasing doses of Tadalafil was tested. HCT116 cells transduced with hPDE5 constructs were treated with Tadalafil for 24 hours at doses ranging from 0.14 to 100 μM. Mean fluorescence intensity (MFI) was measured by FACS. Parental HCT116 and cells expressing OT-hPDE5N-019 comprising hPDE5 wildtype construct were also included as controls. The response of the combination mutants to Tadalafil was compared to the response of the single mutant construct OT-hPDE5N-020. The stabilization ratio (SR) was calculated as the fold change in GFP intensity in Tadalafil treated samples compared to treatment with DMSO (i.e. in the absence of ligand) with the same construct. The destabilizing mutation coefficient was calculated as the fold change in GFP intensity in the hPDE5 mutant constructs compared to the hPDE5 wildtype construct (OT-hPDE5N-0019) in the absence of the ligand. Destabilizing mutation coefficient less than 1 are desirable. Stabilization ratios greater than 1 are desired in DDs.

[3] = system: hPDE5 mutants fused to GFP in HCT116 cells; assay: Vardenafil dose response 48 hours, fold change in GFP MFI over DMSO; conditions: 0.1 and 0.3 micro molar
Protocol: Combination mutants were generated as described in Example 9. […] Mean fluorescence intensity (MFI) of GFP was measured by FACS.

[4] = system: hPDE5 mutants fused to GFP in HCT116 cells; assay: Response to Sildenafil (5 or 0.5 μM) over time, MFI by FACS
Protocol: Mean fluorescence intensity (MFI) was measured by FACS. […] The destabilizing mutation coefficient was calculated as the fold change in GFP intensity in the hPDE5 mutant constructs compared to the hPDE5 wildtype construct (OT-hPDE5N-019) in the absence of the ligand. Destabilizing mutation coefficient less than 1 are desirable. Stabilization ratios greater than 1 are desired in DDs. The results and stabilization ratios for time course experiments with 5 or 0.5 μM are presented in Table 30 and Table 31 respectively.

[5] = system: hPDE5 truncation mutants (R732L) fused to AcGFP in HCT-116 cells; assay: Expression of hPDE5 truncation mutants, GFP MFI by FACS
From the text: Several truncation mutants of the full length hPDE5 were generated to identify regions beyond the […] catalytic domain that may serve as a template for identifying DDs. The truncation mutants tested included amino acids 535-860 of hPDE5 WT (E535-Q860), amino acids 535 to 836 of hPDE5 WT (E535-S836), amino acids 590 to 860 of hPDE5 WT (M590-Q860), amino acids 590 to 836 of hPDE5 WT (M590-S836), wherein the amino acids positions are with respect to SEQ ID NO. 1. The DD mutation R732L was incorporated into all truncation mutants and its destabilizing potential was compared to E535-Q860 wildtype by fusing the mutants to an SG linker and reporter, AcGFP. […] As a control, parental untransduced cells and cells expressing OT-hPDE5N-001, or OT-hPDE5N-028 were also included in the analysis. The mean fluorescence intensity (MFI) of GFP was analyzed by FACS. […] The destabilizing mutation coefficient was calculated as the fold change in GFP intensity in the hPDE5 mutant constructs compared to the hPDE5 wildtype construct (OT-hPDE5N-019) in the absence of the ligand. Destabilizing mutation coefficients less than 1 are desirable. Stabilization ratios greater than 1 are desired in DDs.

[6] = system: hPDE5 mutants fused to GFP in HCT116 cells; assay: Vardenafil dose response of combination mutants, MFI by FACS; conditions: for MFI / SR: 24 hours
Protocol: Mean fluorescence intensity (MFI) was measured by FACS. Parental HCT116 and cells expressing OT-hPDE5N-019 comprising hPDE5 wildtype construct were also included as controls. […] The destabilizing mutation coefficient ratio was calculated as the fold change in GFP intensity in the hPDE5 mutant constructs compared to the hPDE5 wildtype construct (OT-hPDE5N-019) in the absence of the ligand. Destabilizing mutation co-efficient ratios less than 1 are desirable. Stabilization ratios greater than 1 are desired in DDs.

Q: What does the source list for “OT-hPDE5N-020: construct consisting of E535-Q860 amino acids of hPDE5 with the R732L mutant, SG linker, AcGFP; single mutant construct”?
A: AcGFP protein (western blot) with Vardenafil [1]: showed vardenafil dependent stabilization; MFI ([2]; DMSO, 24 hours, HCT116): 3806; destabilizing mutation coefficient ([2]; Tadalafil dose response experiment, absence of ligand, vs OT-hPDE5N-019): 0.1; ligand dependent stabilization (fold change in MFI over DMSO) at lower doses of Vardenafil [3]: observed at lower doses i.e. 0.1 and 0.3 micro molar concentrations of Vardenafil; stabilization ratios over time, Sildenafil 0.5 μM ([4]; 0-72 hours, HCT116): greater stabilization; MFI ([4]; Sildenafil 0.5 μM, 0 hours): 2727; MFI ([4]; Sildenafil 0.5 μM, 4 hours): 4127; Stabilization ratio ([4]; Sildenafil 0.5 μM, 4 hours): 1.51; MFI ([4]; Sildenafil 0.5 μM, 8 hours): 5461; Stabilization ratio ([4]; Sildenafil 0.5 μM, 8 hours): 2.00; MFI ([4]; Sildenafil 0.5 μM, 12 hours): 9058; Stabilization ratio ([4]; Sildenafil 0.5 μM, 12 hours): 3.32; MFI ([4]; Sildenafil 0.5 μM, 16 hours): 14469; Stabilization ratio ([4]; Sildenafil 0.5 μM, 16 hours): 5.31; MFI ([4]; Sildenafil 0.5 μM, 20 hours): 16142; Stabilization ratio ([4]; Sildenafil 0.5 μM, 20 hours): 5.92; MFI ([4]; Sildenafil 0.5 μM, 24 hours): 20524; Stabilization ratio ([4]; Sildenafil 0.5 μM, 24 hours): 7.53; MFI ([4]; Sildenafil 0.5 μM, 48 hours): 45754; Stabilization ratio ([4]; Sildenafil 0.5 μM, 48 hours): 16.78; MFI ([4]; Sildenafil 0.5 μM, 72 hours): 58786; Stabilization ratio ([4]; Sildenafil 0.5 μM, 72 hours): 21.56; MFI ([4]; Sildenafil 5 μM, 0 hours): 2668; MFI ([4]; Sildenafil 5 μM, 4 hours): 4236; Stabilization ratio ([4]; Sildenafil 5 μM, 4 hours): 1.59; MFI ([4]; Sildenafil 5 μM, 8 hours): 5672; Stabilization ratio ([4]; Sildenafil 5 μM, 8 hours): 2.13; MFI ([4]; Sildenafil 5 μM, 12 hours): 9097; Stabilization ratio ([4]; Sildenafil 5 μM, 12 hours): 3.41; MFI ([4]; Sildenafil 5 μM, 16 hours): 14855; Stabilization ratio ([4]; Sildenafil 5 μM, 16 hours): 5.57; MFI ([4]; Sildenafil 5 μM, 20 hours): 15529; Stabilization ratio ([4]; Sildenafil 5 μM, 20 hours): 5.82; MFI ([4]; Sildenafil 5 μM, 24 hours): 20955; Stabilization ratio ([4]; Sildenafil 5 μM, 24 hours): 7.85; MFI ([4]; Sildenafil 5 μM, 48 hours): 46604; Stabilization ratio ([4]; Sildenafil 5 μM, 48 hours): 17.47; MFI ([4]; Sildenafil 5 μM, 72 hours): 58479; Stabilization ratio ([4]; Sildenafil 5 μM, 72 hours): 21.92; ligand dependent stabilization (stabilization ratio) of truncation mutants ([5]; 10 μM Sildenafil or Vardenafil, 48 hours, HCT-116): strongest ligand dependent stabilization with both ligands; Sildenafil Stabilization ratio ([5]; 10 μM Sildenafil vs DMSO, 48 hours): 6.02; Vardenafil Stabilization ratio ([5]; 10 μM Vardenafil vs DMSO, 48 hours): 10.08; MFI Sildenafil ([5]; HCT-116, 10 μM Sildenafil, 48 hours): 55636; MFI Vardenafil ([5]; HCT-116, 10 μM Vardenafil, 48 hours): 93216; MFI DMSO ([5]; HCT-116, DMSO, 48 hours): 9248; destabilizing mutation coefficient ([5]; vs hPDE5 wildtype construct in absence of ligand): 0.14; MFI ([6]; DMSO, HCT116): 7829; SR ([6]; Vardenafil 0.04 μM vs DMSO): 1.88; MFI ([6]; Vardenafil 0.04 μM): 14745; SR ([6]; Vardenafil 0.12 μM vs DMSO): 2.15; MFI ([6]; Vardenafil 0.12 μM): 16866; SR ([6]; Vardenafil 0.37 μM vs DMSO): 3.17; MFI ([6]; Vardenafil 0.37 μM): 24847; SR ([6]; Vardenafil 1.11 μM vs DMSO): 3.94; MFI ([6]; Vardenafil 1.11 μM): 30879; SR ([6]; Vardenafil 3.33 μM vs DMSO): 4.54; MFI ([6]; Vardenafil 3.33 μM): 35564; SR ([6]; Vardenafil 10 μM vs DMSO): 4.99; MFI ([6]; Vardenafil 10 μM): 39089; SR ([6]; Vardenafil 30 μM vs DMSO): 9.62; MFI ([6]; Vardenafil 30 μM): 75323; destabilizing mutation coefficient ([6]; Vardenafil dose response experiment, absence of ligand, vs OT-hPDE5N-019): 0.13
